Results reported in patent publication US10272261B2, “Methods and compositions for treating ocular glaucoma” (Massachusetts Eye and Ear Infirmary, priority 2004, dated 2019).
Entries after “also recorded” stand apart in the source; their conditions may differ.

Key:
DBA/2J glaucoma mice = experiment: IOP measurement (applanation tonometer) after transscleral ciliary body PDT in DBA/2J glaucoma mice; type: in vivo, mouse
Description: All experiments were performed in accordance with the Association for Research in Vision and Ophthalmology Statement for the Use of Animals in Ophthalmic and Vision Research. C57BL/6 female mice aged 3 months (n=20) were used as the normal model. DBA/2J female mice aged 8 months (n=20) were used as the glaucoma mouse model. One eye of each animal was treated and the other eye served as a control (for both the normal and glaucoma models). Animals were housed in covered cages, were fed with a standard rodent diet ad libitum and were kept under constant 12 hour light-12 hour dark cycles. For general anesthesia, a mixture of ketamine (100 mg/kg) and xylazine (9 mg/kg) was administered intraperitoneally.
DBA/2J mice spontaneously develop essential iris atrophy, pigment dispersion, and glaucomatous changes. The IOP becomes elevated in most mice by the age of 9 months, which can be followed by ganglion cell loss, optic nerve atrophy and optic nerve cupping. As glaucoma developed, ganglion cell loss and mild cupping of the optic nerve were present in some animals by 11 months and in the majority of mice by the age of 22 months.
Verteporfin photosensitizer (Novartis Ophthalmics, Inc., Duluth, Ga.) was used in these experiments. The mice were systemically anesthetized prior to PDT, and the photosensitizer dye was administered to the animals by tail vain injections using a 30 G needle 5 minutes before laser irradiation. A dose of 2.0 or 4.0 mg/kg was used in C57BL/6 normal mice and of 1.0 mg/kg was used in DBA/2J mice. The laser irradiation to the ciliary body was applied transsclerally using a 600 μm optical fiber at a wavelength of light of 689 nm from a Diode Laser, with an irradiance of 1800 mW/cm^2 and a fluence of 100 J/cm^2 (Lumenis, Santa Clara, Calif.). Transscleral irradiation of the ciliary body was performed with applications for 360 degrees of the corneoscleral limbus in C57BL/6 normal mice and for 180 degrees in DBA/2J mice. In the C57BL/6 and DBA/2J mice, 16 and 8 spots, respectively, were irradiated to overlap with one another. In the eyes prepared for lectin labeling and terminal deoxynucleotide transferase-mediated nick end labeling (TUNEL) staining (a measure of apoptosis), PDT was performed in C57BL/6 mice to cover 180 degrees of the ciliary body at a 4.0 mg/kg verteporfin dose to compare the degree of staining between irradiated area and non-irradiated area. Retreatment was performed in C57BL/6 normal mice which had been treated with 2.0 mg/kg of verteporfin after the IOP measurement at post-PDT day 7 using the same light parameters.
The IOP was measured using a previously reported applanation tonometer (Ahamed et al. (2003) IOVS 44:ARVO E-Abstract 3336) (n=12 in DBA/2J mice, n=5 in C57BL/6 mice at each dose). The principle of applanation tonometry employs fiber-optic gauges which are designed around a Fabry-Perot interferometer (FPI) (FTI-10; FISO Technologies, Inc., Quebec, Canada). FPI consists of two mirrors facing each other, the space separating the mirrors being called the cavity length. Light reflected in the FPI is wavelength-modulated in exact accordance with the cavity length. […]
IOP was measured under general anesthesia. […]
As soon as the mice were anesthetized sufficiently, they were placed on a surgical platform. When the pressure sensor applanated a central area of mouse cornea under a dissecting microscope, the IOP (psi) was measured by the device 10 times automatically. […]

retinal ganglion cells = experiment: Retinal ganglion cell (RGC) count in DBA/2J mice, fluorochrome retrograde labeling; type: in vivo, mouse
From the text: Four weeks after the end of IOP follow up, RGC was counted in DBA/2J mice (11 months old) as described previously (Levkovitch-Verbin et al. (2000) INVEST. OPHTHALMOL. VIS. SCI. 41:4169-74, Danias et al. (2003) INVEST. OPHTHALMOL. VIS. SCI. 44:5151-62) with slight modification (n=4). After the mice were anesthetized, the skin over the cranium was incised, and the scalp was exposed. Holes approximately 2 mm in diameter were drilled in the skull 4 mm posterior to the bregma, 1 mm lateral to the midline on both sides of the midline raphe. The neurotracer dye fluorochrome (Fluoro-gold, Englewood, Colo.) (4% solution in saline) was directly applied (1 μL, at a rate of 0.5 μL/min) at a depth of 2 mm from the brain surface using a Hamilton syringe (Hamilton, Reno, Nev.). Skull openings then were sealed with antibiotic ointment. The overlying skin was sutured and antibiotic ointment applied externally.
Seven days after the application of fluorochrome, the eyes were enucleated. […] Cell counting was performed as previously described (Nakazawa et al. (2002) INVEST. OPHTHALMOL. VIS. SCI. 43:3319-26) under a fluorescence microscope (Leica Microsystems, Wetzlar, Germany) using a UV filter set. RGC densities were determined by counting the tracer-labeled RGCs in 12 distinct areas of 9.0×10^−2 mm^2 each (three areas per retinal quadrant at 1/6, 3/6 and 5/6 of the retinal radius). […]

## verteporfin
DBA/2J glaucoma mice; 1.0 mg/kg i.v., 689 nm, 100 J/cm^2, 180 degrees, 1 day after treatment
  mean IOP of treated eyes: 15.9±5.7 mmHg
DBA/2J glaucoma mice; 1.0 mg/kg, 180 degrees, 1 day after PDT
  difference of mean IOP between fellow control eyes and treated eyes: no significant difference
DBA/2J glaucoma mice; 1.0 mg/kg, 180 degrees, 3 days after PDT
  mean IOP of treated eyes: 9.5±3.4 mmHg
DBA/2J glaucoma mice; 1.0 mg/kg, 180 degrees, 3 days after PDT, p<0.05
  reduction of mean IOP of treated eyes compared to fellow control eyes: 40.8%
DBA/2J glaucoma mice; 1.0 mg/kg, treatment of 180°
  IOP reduction: significant reduction of IOP
Retinal ganglion cells; 1.0 mg/kg PDT at 8 months, counted at 11 months of age
  number of retinal ganglion cells in the treated eyes: 3905±627 /mm^2
Retinal ganglion cells; 1.0 mg/kg PDT, 3 month period, p<0.05
  retinal ganglion cell survival, treated versus control eyes: significantly higher than control eyes; also recorded: loss of retinal ganglion cells over the 3 month period was significantly reduced
